Test results reported in the NIST ThermoML archive (doi:10.1021/je4004806).
± gives the expanded uncertainty stated by the source.

Key:
[1] = xn = mol fraction of the nth substance listed; details: 101 kPa, Liquid; for mass density: Vibrating tube method; for viscosity: Capillary tube (Ostwald / Ubbelohde) method
[2] = 101 kPa, Liquid; for viscosity: Capillary tube (Ostwald / Ubbelohde) method; for mass density: Vibrating tube method

CCCCCCCC [octane] + CCO
mass density [kg/m3], [1]
Details | x1 = 0.1008 | x1 = 0.2015 | x1 = 0.2998 | x1 = 0.4008 | x1 = 0.4663 | x1 = 0.6008 | x1 = 0.6991 | x1 = 0.7931 | x1 = 0.9031 | x1 = 1
293.15 K | 766.88 ± 0.81 | 750.57 ± 0.58 | 738.83 ± 0.44 | 729.83 ± 0.36 | 724.97 ± 0.3 | 716.77 ± 0.27 | 712.03 ± 0.23 | 708.31 ± 0.21 | 704.73 ± 0.19 | 702.54 ± 0.15
298.15 K | 762.56 ± 0.81 | 746.27 ± 0.58 | 734.53 ± 0.44 | 725.55 ± 0.37 | 720.68 ± 0.29 | 712.52 ± 0.27 | 707.81 ± 0.23 | 704.12 ± 0.21 | 700.59 ± 0.19 | 698.49 ± 0.15
303.15 K | 758.23 ± 0.81 | 741.94 ± 0.58 | 730.2 ± 0.44 | 721.22 ± 0.37 | 716.37 ± 0.29 | 708.23 ± 0.27 | 703.55 ± 0.23 | 699.9 ± 0.21 | 696.43 ± 0.19 | 694.44 ± 0.16
308.15 K | 753.87 ± 0.81 | 737.57 ± 0.58 | 725.83 ± 0.44 | 716.86 ± 0.37 | 712.02 ± 0.29 | 703.91 ± 0.27 | 699.27 ± 0.23 | 695.65 ± 0.21 | 692.24 ± 0.19 | 690.37 ± 0.16
313.15 K | 749.47 ± 0.81 | 733.15 ± 0.58 | 721.42 ± 0.44 | 712.46 ± 0.37 | 707.63 ± 0.29 | 699.56 ± 0.27 | 694.94 ± 0.23 | 691.37 ± 0.21 | 688.03 ± 0.19 | 686.29 ± 0.16
318.15 K | 745.03 ± 0.81 | 728.69 ± 0.58 | 716.96 ± 0.44 | 708 ± 0.37 | 703.19 ± 0.29 | 695.15 ± 0.27 | 690.58 ± 0.23 | 687.05 ± 0.21 | 683.78 ± 0.19 | 682.19 ± 0.16
323.15 K | 740.54 ± 0.82 | 724.18 ± 0.58 | 712.45 ± 0.44 | 703.5 ± 0.36 | 698.69 ± 0.3 | 690.7 ± 0.27 | 686.17 ± 0.23 | 682.7 ± 0.21 | 679.51 ± 0.18 | 678.08 ± 0.16

CCCCCO [pentan-1-ol]
[2]
Details | mass density [kg/m3] | viscosity [mPa·s]
293.15 K | 814.59 ± 0.11 | 4.042 ± 0.022
298.15 K | 810.93 ± 0.12 | 3.518 ± 0.02
303.15 K | 807.24 ± 0.12 | 3.06 ± 0.018
308.15 K | 803.53 ± 0.12 | 2.659 ± 0.016
313.15 K | 799.79 ± 0.12 | 2.334 ± 0.015
318.15 K | 796.03 ± 0.12 | 2.042 ± 0.013
323.15 K | 792.23 ± 0.12 | 1.805 ± 0.013

CCCO [propan-1-ol]
[2]
Details | mass density [kg/m3] | viscosity [mPa·s]
293.15 K | 803.84 ± 0.12 | 2.21 ± 0.014
298.15 K | 799.85 ± 0.12 | 1.962 ± 0.013
303.15 K | 795.81 ± 0.12 | 1.746 ± 0.012
308.15 K | 791.74 ± 0.12 | 1.556 ± 0.012
313.15 K | 787.64 ± 0.13 | 1.386 ± 0.011
318.15 K | 783.55 ± 0.13 | 1.242 ± 0.011
323.15 K | 779.32 ± 0.13 | 1.115 ± 0.01

CCCO [propan-1-ol] + CCCCCCCC
[1], x2 = 0
Details | mass density [kg/m3] | viscosity [mPa·s]
293.15 K | 803.84 ± 0.12 | 2.21 ± 0.014
298.15 K | 799.85 ± 0.12 | 1.962 ± 0.013
303.15 K | 795.81 ± 0.12 | 1.746 ± 0.012
308.15 K | 791.74 ± 0.12 | 1.556 ± 0.012
313.15 K | 787.64 ± 0.13 | 1.386 ± 0.011
318.15 K | 783.55 ± 0.13 | 1.242 ± 0.011
323.15 K | 779.32 ± 0.13 | 1.115 ± 0.01
